Patent US12398154B2, “Azaquinazoline pan-KRas inhibitors” (Mirati Therapeutics, Inc., priority 2020, dated 2025)

Legend:
[1] = target: KRas G12R (Homo sapiens, UniProt P01116, G12R); experiment: biochemical;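 note: TR-FRET displacement assay of compound binding to KRas, read after one hour at room temperature, potency from a four-parameter fit of percent-of-control values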
Procedure: (§2) The ability of a compound to bind to KRas was measured using a TR-FRET displacement assay. […] After a 60-minute incubation at room temperature, the reaction was measured using a BMG LABTECH CLARIO star Plus via TR-FRET. […] The POC values were fit to a 4-parameter IC50 equation and the IC50 value reported.

[2] = target: KRas G12A (Homo sapiens, UniProt P01116, G12A); experiment: biochemical;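 note: binding to KRas measured by TR-FRET displacement after one hour at room temperature, IC50 from a four-parameter fit of percent-of-control values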
KRas G12A, sequence (P01116 1-169 isoform P01116-2 G12A): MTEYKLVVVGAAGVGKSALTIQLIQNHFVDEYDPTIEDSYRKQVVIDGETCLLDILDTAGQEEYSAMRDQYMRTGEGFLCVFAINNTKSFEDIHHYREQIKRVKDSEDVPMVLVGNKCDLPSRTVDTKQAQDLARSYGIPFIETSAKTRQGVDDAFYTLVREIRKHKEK
Procedure: as §2

[3] = target: KRas G12C (Homo sapiens, UniProt P01116, G12C); experiment: biochemical;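 note: binding to KRas assessed by TR-FRET displacement after one hour incubation at room temperature, potency fitted from percent-of-control values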
KRas G12C, sequence (P01116 1-169 isoform P01116-2 G12C): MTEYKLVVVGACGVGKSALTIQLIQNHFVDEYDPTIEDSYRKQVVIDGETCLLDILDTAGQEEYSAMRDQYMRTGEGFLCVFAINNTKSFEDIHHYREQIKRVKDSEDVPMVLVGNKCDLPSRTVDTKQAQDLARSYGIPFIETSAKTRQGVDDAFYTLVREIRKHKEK
Procedure: as §2

[4] = target: KRas G12D (Homo sapiens, UniProt P01116, G12D); experiment: biochemical;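 note: TR-FRET displacement binding assay on KRas, read after a one-hour incubation at room temperature, IC50 fitted from percent-of-control values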
KRas G12D, sequence (P01116 1-169 isoform P01116-2 G12D): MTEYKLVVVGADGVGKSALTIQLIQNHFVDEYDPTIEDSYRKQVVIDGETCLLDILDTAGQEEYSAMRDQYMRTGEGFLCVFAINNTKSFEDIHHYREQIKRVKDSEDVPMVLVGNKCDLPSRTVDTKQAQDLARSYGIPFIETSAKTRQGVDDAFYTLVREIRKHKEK
Procedure: as §2

[5] = target: T1, KRas Q61H (Homo sapiens, UniProt P01116, Q61H); experiment: KRas binding assay (TR-FRET displacement);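 note: TR-FRET signal read after one hour at room temperature, IC50 derived by four-parameter fitting of percent-of-control values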
T1 construct: Biotinylated KRas (corresponding to amino acids 1-169, produced at Accelegan Inc.); biotin (biotinylated); purchased Accelegan Inc
T1 sequence (P01116 1-169 isoform P01116-2 Q61H): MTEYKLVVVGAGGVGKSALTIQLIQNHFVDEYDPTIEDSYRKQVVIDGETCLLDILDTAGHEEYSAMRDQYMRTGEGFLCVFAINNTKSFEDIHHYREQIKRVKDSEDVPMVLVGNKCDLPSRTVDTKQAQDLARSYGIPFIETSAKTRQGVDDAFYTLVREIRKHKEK
Procedure: as §2

[6] = tested on: phospho-ERK in AsPC-1 (G12D) cells; experiment: Inhibition of KRas-mediated phosphorylation of ERK (in-cell western); assay type: cell-based; details: Homo sapiens, ASPC1, 3 h, 3 hours compound, phospho-ERK normalized to GAPDH
Procedure, shortened: (§1)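 Cells were treated with compound for 3 hours (0.5% DMSO final), then fixed with formaldehyde and permeabilized with ice-cold methanol. Phospho-ERK (Thr202/Tyr204) was detected by antibody and normalized to GAPDH per well, expressed as percent of DMSO control, and IC50 obtained by 4-parameter fit.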

[7] = tested on: phospho-ERK in NCI-H727 (G12V) cells; experiment: as above; assay type: cell-based; details: Homo sapiens, NCI-H727, 3 h, 3 hours compound, phospho-ERK normalized to GAPDH
Procedure, shortened: as §1

[8] = tested on: phospho-ERK in NCI-H460 (Q61H) cells; experiment: as above; assay type: cell-based; details: Homo sapiens, NCI-H460, 3 h, 3 hours compound, phospho-ERK normalized to GAPDH
Procedure, shortened: as §1

[9] = target: T2, KRas G13D (Homo sapiens, UniProt P01116, G13D); experiment: KRas binding assay (TR-FRET displacement);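 note: One-hour room temperature incubation before TR-FRET reading, IC50 from a four-parameter curve fit to percent-of-control data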
T2 construct: Biotinylated KRas (corresponding to amino acids 1-169, produced at Accelegan Inc.); biotin (biotinylated); purchased Accelegan Inc
T2 sequence (P01116 1-169 isoform P01116-2 G13D): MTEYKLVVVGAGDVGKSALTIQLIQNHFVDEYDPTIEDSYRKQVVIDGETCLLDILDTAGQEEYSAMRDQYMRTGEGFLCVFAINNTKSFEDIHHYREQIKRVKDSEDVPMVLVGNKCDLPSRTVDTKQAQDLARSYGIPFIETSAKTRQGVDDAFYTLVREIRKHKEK
Procedure: as §2

[10] = target: KRas G12S (Homo sapiens, UniProt P01116, G12S); experiment: biochemical;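 note: TR-FRET displacement binding to KRas, read after one hour incubation at room temperature, IC50 from four-parameter fit of percent of control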
KRas G12S, sequence (P01116 1-169 isoform P01116-2 G12S): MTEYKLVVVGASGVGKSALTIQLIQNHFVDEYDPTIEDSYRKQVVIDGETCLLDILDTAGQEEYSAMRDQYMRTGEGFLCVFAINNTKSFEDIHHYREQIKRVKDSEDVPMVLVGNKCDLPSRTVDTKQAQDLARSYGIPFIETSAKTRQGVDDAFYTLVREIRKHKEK
Procedure: as §2

[11] = target: KRas WT (Homo sapiens, UniProt P01116); experiment: biochemical;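 note: binding to KRas read as TR-FRET displacement after a one-hour room-temperature incubation, IC50 derived from percent-of-control values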
KRas WT, sequence (P01116 1-169 isoform P01116-2): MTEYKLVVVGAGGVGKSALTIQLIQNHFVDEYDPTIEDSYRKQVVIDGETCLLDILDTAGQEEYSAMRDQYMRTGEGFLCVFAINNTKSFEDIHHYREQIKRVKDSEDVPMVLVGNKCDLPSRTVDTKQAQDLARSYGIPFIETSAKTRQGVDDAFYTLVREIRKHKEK
Procedure: as §2

[12] = target: KRas G12V (Homo sapiens, UniProt P01116, G12V); experiment: biochemical;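 note: KRas binding measured by TR-FRET displacement at room temperature, IC50 fitted from percent of control values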
KRas G12V, sequence (P01116 1-169 isoform P01116-2 G12V): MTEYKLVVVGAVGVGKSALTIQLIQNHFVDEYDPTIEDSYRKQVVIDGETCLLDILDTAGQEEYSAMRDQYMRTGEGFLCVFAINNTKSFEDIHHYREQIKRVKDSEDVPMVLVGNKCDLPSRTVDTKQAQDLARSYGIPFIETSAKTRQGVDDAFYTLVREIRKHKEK
Procedure: as §2

[13] = tested on: pERK in A549 cells; experiment: Inhibition of KRas phosphorylation of ERK (Cisbio HTRF pERK assay); details: Homo sapiens, A549, read-out: Inhibition (HTRF IC50) of KRas-mediated Phosphorylation of ERK, A549
[14] = tested on: pERK in ASPC1 cells; experiment: as above; details: Homo sapiens, ASPC1, read-out: Inhibition (HTRF IC50) of KRas-mediated Phosphorylation of ERK, AsPC-1
[15] = tested on: pERK in PSN1 cells; experiment: as above; details: Homo sapiens, PSN1, 3 h, read-out: Inhibition (HTRF IC50) of KRas-mediated Phosphorylation of ERK, PSN1
[16] = tested on: pERK in H727 cells; experiment: as above; details: Homo sapiens, NCI-H727, read-out: Inhibition (HTRF IC50) of KRas-mediated Phosphorylation of ERK, H727
[17] = tested on: pERK in HCT116 cells; experiment: as above; details: Homo sapiens, HCT-116, read-out: Inhibition (HTRF IC50) of KRas-mediated Phosphorylation of ERK, HCT116
[18] = tested on: pERK in MKN1 cells; experiment: as above; details: Homo sapiens, MKN-1, 3 h, read-out: Inhibition (HTRF IC50) of KRas-mediated Phosphorylation of ERK, MKN1
[19] = tested on: pERK in H460 cells; experiment: as above; details: Homo sapiens, NCI-H460, read-out: Inhibition (HTRF IC50) of KRas-mediated Phosphorylation of ERK, H460

KRas G12R, sequence (P01116 1-169 isoform P01116-2 G12R): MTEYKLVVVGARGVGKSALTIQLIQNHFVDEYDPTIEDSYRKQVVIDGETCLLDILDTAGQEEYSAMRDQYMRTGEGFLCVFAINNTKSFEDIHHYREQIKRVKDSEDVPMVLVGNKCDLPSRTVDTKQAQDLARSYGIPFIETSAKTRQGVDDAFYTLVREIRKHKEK

Row | Compound | IC50 [1] [nM] | IC50 [2] [nM] | IC50 [3] [nM] | IC50 [4] [nM] | IC50 [5] [nM] | IC50 [6] [nM] | IC50 [7] [nM] | IC50 [8] [nM] | IC50 [9] [nM] | IC50 [10] [nM] | IC50 [11] [nM] | IC50 [12] [nM] | IC50 [13] [nM] | IC50 [14] [nM] | IC50 [15] [nM] | IC50 [16] [nM] | IC50 [17] [nM] | IC50 [18] [nM] | IC50 [19] [nM]
1 | C[C@H]1C[C@H]1c1c(Cl)cc2[nH]ncc2c1-c1ncc2c(N3CCC[C@@](C)(O)C3)nc(OC[C@@]34CCCN3C[C@H](F)C4)nc2c1F (racemic) [Example 153, (3R)-1-(7-(6-chloro-5-(2-methylcyclopropyl)-1H-indazol-4-yl)-8-fluoro-2-(((2R,7aS)-2-fluorotetrahydro-1H-pyrrolizin-7a(5H)-yl)methoxy)pyrido[4,3-d]pyrimidin-4-yl)-3-methylpiperidin-3-ol] | 10 | 7 | 7 | 6 | 7 | 233 | 500 | 306 | 8 | 7 | 6 | 5 |  |  |  |  |  |  | 
2 | CCc1c(F)ccc2cc(O)cc(-c3ncc4c(N5CCC[C@@](C)(O)C5)nc(OC[C@@]56CCCN5C[C@H](F)C6)nc4c3F)c12 [Example 5] |  |  |  |  |  |  |  |  |  |  |  |  | 2 | 2 | 364 |  |  |  | 
3 | CCc1c(F)ccc2cc(O)cc(-c3ncc4c(N5CCCCC(S(C)(=O)=O)C5)nc(OC[C@@]56CCCN5C[C@H](F)C6)nc4c3F)c12 (stereo partly drawn) [Example 308, 5-ethyl-6-fluoro-4-(8-fluoro-2-(((2R,7aS)-2-fluorohexahydro-1H-pyrrolizin-7a-yl)methoxy)-4-(3-(methylsulfonyl)azepan-1-yl)pyrido[4,3-d]pyrimidin-7-yl)naphthalen-2-ol] | 10 |  |  | 6 |  | 489 | 627 | 372 |  |  |  | 4 |  | 155 | ≥ 10000 | 278 | 284 | 40 | 
4 | CCc1c(F)ccc2cc(O)cc(-c3ncc4c(N5CCCC6(CCC6O)C5)nc(OC[C@@]56CCCN5C[C@H](F)C6)nc4c3F)c12 (stereo partly drawn) [Example 351, 6-(7-(8-ethyl-7-fluoro-3-hydroxynaphthalen-1-yl)-8-fluoro-2-(((2R,7aS)-2-fluorohexahydro-1H-pyrrolizin-7a-yl)methoxy)pyrido[4,3-d]pyrimidin-4-yl)-6-azaspiro[3.5]nonan-1-ol] | 11 |  |  | 13 |  |  |  |  |  |  |  | 15 | 185 | 228 | 7180 | 551 | 346 | 48 | 182
5 | CCc1c(F)ccc2cc(O)cc(-c3ncc4c(N5CCCC6(CNS(=O)(=O)N6)C5)nc(OCC5(CN(C)C)CC5)nc4c3F)c12 (centres unmarked) [Example 364, 7-(2-((1-((dimethylamino)methyl)cyclopropyl)methoxy)-7-(8-ethyl-7-fluoro-3-hydroxynaphthalen-1-yl)-8-fluoropyrido[4,3-d]pyrimidin-4-yl)-2-thia-1,3,7-triazaspiro[4.5]decane 2,2-dioxide] | ≤ 2 |  |  | ≤ 2 |  |  |  |  |  |  |  | ≤ 2 | 219 | 121 | ≥ 10000 | 578 | 645 | 26 | 117
6 | C#Cc1c(F)ccc2cc(O)cc(-c3ncc4c(N5CC6CC(O)CC5C6)nc(OC[C@@]56CCCN5C[C@H](F)C6)nc4c3F)c12 (stereo partly drawn) [Example 390, 6-(7-(8-ethynyl-7-fluoro-3-hydroxynaphthalen-1-yl)-8-fluoro-2-(((2R,7aS)-2-fluorohexahydro-1H-pyrrolizin-7a-yl)methoxy)pyrido[4,3-d]pyrimidin-4-yl)-6-azabicyclo[3,2,1]octan-3-ol] | ≤ 2 |  |  | ≤ 2 |  |  |  |  |  |  |  | ≤ 2 | 114 | 195 | 748 | 16 | 190 | 8 | 175
7 | C#Cc1c(F)ccc2cc(O)cc(-c3ncc4c(N5CCCn6nc(N)cc6C5)nc(OC[C@@]56CCCN5C[C@H](F)C6)nc4c3F)c12 [Example 394, 4-(4-(2-amino-7,8-dihydro-4H-pyrazolo[1,5-a][1,4]diazepin-5(6H)-yl)-8-fluoro-2-(((2R,7aS)-2-fluorohexahydro-1H-pyrrolizin-7a-yl)methoxy)pyrido[4,3-d]pyrimidin-7-yl)-5-ethynyl-6-fluoronaphthalen-2-ol] | ≤ 2 |  |  | ≤ 2 |  |  |  |  |  |  |  | ≤ 2 | 567 | 158 | ≥ 10000 | 368 | 1720 | 46 | 1070
8 | Oc1cc(-c2ncc3c(N4CC5CC(O)CC4C5)nc(OC[C@@]45CCCN4C[C@H](F)C5)nc3c2F)c2c(Br)c(F)ccc2c1 (stereo partly drawn) [Example 403, 6-(7-(8-bromo-7-fluoro-3-hydroxynaphthalen-1-yl)-8-fluoro-2-(((2R,7aS)-2-fluorohexahydro-1H-pyrrolizin-7a-yl)methoxy)pyrido[4,3-d]pyrimidin-4-yl)-6-azabicyclo[3.2.1]octan-3-ol] | ≤ 2 |  |  | 6 |  |  |  |  |  |  |  | ≤ 2 | 96 | 426 | 3820 | 79 | 487 | 20 | 182
9 | O=C1CC2(CCCN(c3nc(OC[C@@]45CCCN4C[C@H](F)C5)nc4c(F)c(-c5cc(O)cc6ccc(F)c(Br)c56)ncc34)C2)N1 (stereo partly drawn) [Example 405, 6-(7-(8-bromo-7-fluoro-3-hydroxynaphthalen-1-yl)-8-fluoro-2-(((2R,7aS)-2-fluorohexahydro-1H-pyrrolizin-7a-yl)methoxy)pyrido[4,3-d]pyrimidin-4-yl)-1,6-diazaspiro[3.5]nonan-2-one] | ≤ 2 |  |  | ≤ 2 |  |  |  |  |  |  |  | ≤ 2 | 247 | 238 | 6730 | 114 | 2210 | 45 | 155
10 | CN(C)CC1(COc2nc(N3CCCC4(CNS(=O)(=O)N4)C3)c3cnc(-c4cc(O)cc5ccc(F)c(Cl)c45)c(F)c3n2)CC1 (centres unmarked) [Example 428, 7-(7-(8-chloro-7-fluoro-3-hydroxynaphthalen-1-yl)-2-((1-((dimethylamino)methyl)cyclopropyl)methoxy)-8-fluoropyrido[4,3-d]pyrimidin-4-yl)-2-thia-1,3,7-triazaspiro[4.5]decane 2,2-dioxide] | ≤ 2 |  |  | ≤ 2 |  |  |  |  |  |  |  | ≤ 2 | 183 | 339 | 3280 | 425 | 896 | 28 | 
11 | CCc1c(F)ccc2cc(O)cc(-c3ncc4c(N5CC6C(=O)NC(=O)C6(C)C5)nc(OC[C@@]56CCCN5C[C@H](F)C6)nc4c3F)c12 (stereo partly drawn) [Example 482, 5-(7-(8-ethyl-7-fluoro-3-hydroxynaphthalen-1-yl)-8-fluoro-2-(((2R,7aS)-2-fluorohexahydro-1H-pyrrolizin-7a-yl)methoxy)pyrido[4,3-d]pyrimidin-4-yl)-3a-methyltetrahydropyrrolo[3,4-c]pyrrole-1,3(2H,3aH)-dione] | 3 |  |  | ≤ 2 |  |  |  |  |  |  |  | ≤ 2 | 390 | 546 | ≥ 10000 | 128 |  | 26 | 124
